Measured values: ChEMBL document CHEMBL3877316, “Synthesis of pharmacologically important naphthoquinones and anticancer activity of 2-benzyllawsone through DNA topoisomerase-II inhibition” (Bioorg Med Chem, 2017)
Activity calls are given as the source filed them. The calls are words filed in the database; no cut-off is given here.

Key:
Mus musculus [1] = assay: Acute toxicity in Swiss albino mouse assessed as changes in relative weight of lungs up to 1000 mg/kg, po qd administered as single dose for 7 days; format: organism-based; conditions: in vivo, 168 h
Mus musculus [2] = assay: Acute toxicity in Swiss albino mouse assessed as serum triglycerides level at 1000 mg/kg, po qd administered as single dose for 7 days (reference value: 107.9 +/- 10.7 mg/dl); format: organism-based; conditions: in vivo, 168 h
Mus musculus [3] = assay: Acute toxicity in Swiss albino mouse assessed as serum cholesterol level at 300 mg/kg, po qd administered as single dose for 7 days (reference value: 68.37 +/- 4.42 mg/dl); format: organism-based; conditions: in vivo, 168 h
Mus musculus [4] = assay: Acute toxicity in Swiss albino mouse assessed as serum SGOT level at 50 mg/kg, po qd administered as single dose for 7 days (reference value: 34.32 +/- 3.78 U/L); format: organism-based; conditions: in vivo, 168 h
Mus musculus [5] = assay: Acute toxicity in Swiss albino mouse assessed as serum RBC level at 300 mg/kg, po qd administered as single dose for 7 days (reference value: 9.07 +/- 1.13 million/mm3); format: organism-based; conditions: in vivo, 168 h
Mus musculus [6] = assay: Acute toxicity in Swiss albino mouse assessed as serum SGOT level at 5 mg/kg, po qd administered as single dose for 7 days (reference value: 34.32 +/- 3.78 U/L); format: organism-based; conditions: in vivo, 168 h
Mus musculus [7] = assay: Acute toxicity in Swiss albino mouse assessed as serum WBC level at 300 mg/kg, po qd administered as single dose for 7 days (reference value: 8.64 +/- 0.42 10^3/mm3); format: organism-based; conditions: in vivo, 168 h
Mus musculus [8] = assay: Acute toxicity in Swiss albino mouse assessed as serum ALP level at 300 mg/kg, po qd administered as single dose for 7 days (reference value: 292.13 +/- 40.29 U/L); format: organism-based; conditions: in vivo, 168 h
Mus musculus [9] = assay: Acute toxicity in Swiss albino mouse assessed as serum cholesterol level at 1000 mg/kg, po qd administered as single dose for 7 days (reference value: 68.37 +/- 4.42 mg/dl); format: organism-based; conditions: in vivo, 168 h
Mus musculus [10] = assay: Acute toxicity in Swiss albino mouse assessed as effect on basophil count up to 1000 mg/kg, po qd administered as single dose for 7 days; format: organism-based; conditions: in vivo, 168 h
Mus musculus [11] = assay: Acute toxicity in Swiss albino mouse assessed as serum triglycerides level at 5 mg/kg, po qd administered as single dose for 7 days (reference value: 107.9 +/- 10.7 mg/dl); format: organism-based; conditions: in vivo, 168 h
[12] = Antiproliferative activity against human MCF7 cells after 48 hrs by SRB assay; format: functional, cell-based; conditions: MCF7, 48 h
Mus musculus [13] = assay: Acute toxicity in Swiss albino mouse assessed as serum albumin level at 300 mg/kg, po qd administered as single dose for 7 days (reference value: 2.49 +/- 0.17 g/dl); format: organism-based; conditions: in vivo, 168 h
Mus musculus [14] = assay: Acute toxicity in Swiss albino mouse assessed as body weight at 50 mg/kg, po qd administered as single dose for 7 days (reference value: 27.73 +/- 0.94 g); format: organism-based; conditions: in vivo, 168 h
Mus musculus [15] = assay: Acute toxicity in Swiss albino mouse assessed as changes in gait up to 1000 mg/kg, po qd administered as single dose for 7 days; format: organism-based; conditions: in vivo, 168 h
Mus musculus [16] = assay: Acute toxicity in Swiss albino mouse assessed as serum albumin level at 1000 mg/kg, po qd administered as single dose for 7 days (reference value: 2.49 +/- 0.17 g/dl); format: organism-based; conditions: in vivo, 168 h
Mus musculus [17] = assay: Acute toxicity in Swiss albino mouse assessed as serum creatinine level at 1000 mg/kg, po qd administered as single dose for 7 days (reference value: 0.09 +/- 0.01 mg/dl); format: organism-based; conditions: in vivo, 168 h
Mus musculus [18] = assay: Acute toxicity in Swiss albino mouse assessed as changes in relative weight of liver up to 1000 mg/kg, po qd administered as single dose for 7 days; format: organism-based; conditions: in vivo, 168 h
Mus musculus [19] = assay: Acute toxicity in Swiss albino mouse assessed as serum triglycerides level at 300 mg/kg, po qd administered as single dose for 7 days (reference value: 107.9 +/- 10.7 mg/dl); format: organism-based; conditions: in vivo, 168 h
Mus musculus [20] = assay: Acute toxicity in Swiss albino mouse assessed as serum RBC level at 1000 mg/kg, po qd administered as single dose for 7 days (reference value: 9.07 +/- 1.13 million/mm3); format: organism-based; conditions: in vivo, 168 h
Mus musculus [21] = assay: Acute toxicity in Swiss albino mouse assessed as serum SGOT level at 1000 mg/kg, po qd administered as single dose for 7 days (reference value: 34.32 +/- 3.78 U/L); format: organism-based; conditions: in vivo, 168 h
Mus musculus [22] = assay: Acute toxicity in Swiss albino mouse assessed as serum SGPT level at 1000 mg/kg, po qd administered as single dose for 7 days (reference value: 23.06 +/- 1.92 U/L); format: organism-based; conditions: in vivo, 168 h
Mus musculus [23] = assay: Acute toxicity in Swiss albino mouse assessed as serum SGPT level at 300 mg/kg, po qd administered as single dose for 7 days (reference value: 23.06 +/- 1.92 U/L); format: organism-based; conditions: in vivo, 168 h
Mus musculus [24] = assay: Acute toxicity in Swiss albino mouse assessed as serum SGPT level at 5 mg/kg, po qd administered as single dose for 7 days (reference value: 23.06 +/- 1.92 U/L); format: organism-based; conditions: in vivo, 168 h
Mus musculus [25] = assay: Acute toxicity in Swiss albino mouse assessed as serum WBC level at 5 mg/kg, po qd administered as single dose for 7 days (reference value: 8.64 +/- 0.42 10^3/mm3); format: organism-based; conditions: in vivo, 168 h
Mus musculus [26] = assay: Acute toxicity in Swiss albino mouse assessed as changes in absolute weight of kidney up to 1000 mg/kg, po qd administered as single dose for 7 days; format: organism-based; conditions: in vivo, 168 h
Mus musculus [27] = assay: Acute toxicity in Swiss albino mouse assessed as effect on monocyte count up to 1000 mg/kg, po qd administered as single dose for 7 days; format: organism-based; conditions: in vivo, 168 h
[28] = Cell cycle arrest in human FADU cells assessed as accumulation at S phase at 2.5 to 10 uM by propidium iodide staining based flow cytometry; format: functional
[29] = Antiproliferative activity against human A549 cells after 48 hrs by SRB assay; format: functional, cell-based; conditions: A549, 48 h
Mus musculus [30] = assay: Acute toxicity in Swiss albino mouse assessed as body weight at 300 mg/kg, po qd administered as single dose for 7 days (reference value: 27.73 +/- 0.94 g); format: organism-based; conditions: in vivo, 168 h
[31] = Antiproliferative activity against human FADU cells after 48 hrs by SRB assay; format: functional, cell-based
Mus musculus [32] = assay: Acute toxicity in Swiss albino mouse assessed as changes in response of mouse up to 1000 mg/kg, po qd administered as single dose for 7 days; format: organism-based; conditions: in vivo, 168 h
Mus musculus [33] = assay: Acute toxicity in Swiss albino mouse assessed as changes in posture up to 1000 mg/kg, po qd administered as single dose for 7 days; format: organism-based; conditions: in vivo, 168 h
[34] = Antiproliferative activity against human DU145 cells after 48 hrs by SRB assay; format: functional, cell-based; conditions: DU-145, 48 h
FaDu = assay: Inhibition of topoisomerase-2 in human FADU cells at 2 times antiproliferative IC50 after 24 hrs by ELISA relative to control; format: cell-based
Mus musculus [35] = assay: Acute toxicity in Swiss albino mouse assessed as serum SGPT level at 50 mg/kg, po qd administered as single dose for 7 days (reference value: 23.06 +/- 1.92 U/L); format: organism-based; conditions: in vivo, 168 h

## O=C1C=C(OCc2ccccc2)C(=O)c2ccccc21
Mus musculus [1]
  Activity: Non-Toxic
Mus musculus [2]
  Activity: 127.4 mg/dL
Mus musculus [3]
  Activity: 45.62 mg/dL
Mus musculus [4]
  Activity: 30.19 U/L
Mus musculus [5]
  Activity: 9.59 million/mm3
Mus musculus [6]
  Activity: 38.3 U/L
Mus musculus [7]
  Activity: 8.52 ×10³ /mm3
Mus musculus [8]
  Activity: 386.48 U/L
Mus musculus [9]
  Activity: 51.05 mg/dL
Mus musculus [10]
  Activity: Non-Toxic
Mus musculus [11]
  Activity: 130.9 mg/dL
[12]
  IC50: 13.9 µM
Mus musculus [13]
  Activity: 2.92 g/dL
Mus musculus [14]
  Activity: 26.76 g
Mus musculus [15]
  Activity: Non-Toxic
Mus musculus [16]
  Activity: 2.88 g/dL
Mus musculus [17]
  Activity: 0.16 mg/dL
Mus musculus [18]
  Activity: Non-Toxic
Mus musculus [19]
  Activity: 119.3 mg/dL
Mus musculus [20]
  Activity: 8.89 million/mm3
Mus musculus [21]
  Activity: 31.68 U/L
Mus musculus [22]
  Activity: 25 U/L
Mus musculus [23]
  Activity: 20.48 U/L
Mus musculus [24]
  Activity: 19.16 U/L
Mus musculus [25]
  Activity: 8.66 ×10³ /mm3
Mus musculus [26]
  Activity: Non-Toxic
Mus musculus [27]
  Activity: Non-Toxic
[28]
  Activity: Active
[29]
  IC50: 6.83 µM
Mus musculus [30]
  Activity: 27.09 g
[31]
  IC50: 5.27 µM
Mus musculus [32]
  Activity: Non-Toxic
Mus musculus [33]
  Activity: Non-Toxic
[34]
  IC50: 10.6 µM
FaDu
  inhibition: 36.6%
Mus musculus [35]
  Activity: 18.02 U/L
